Source: patent US20180055797A1, “NON-RACEMIC KETONE SALTS FOR RAPID-ONSET NUTRITIONAL KETOSIS AND METABOLIC THERAPY” (KetoneAid Inc., priority 2016, published 2018)

Assays:
[1] = Ketone blood concentration after ingestion of 1,3-butanediol (FIG. 2, FIG. 3); format: in vivo, person; details: for increase in ketones over pre consumption ketone levels: one person (D), two people racemic
Text: FIG. 2 depicts an exemplary ketone blood concentration after ingestion of racemic 1,3-butanediol.
FIG. 3 depicts a ketone blood concentration after one person ingested (D) 1,3-butanediol, compared to the results of two people ingesting racemic 1,3-butanediol.
It should also be noted that only the D enantiomer is active in the body as a source of extracellular fuel that is then transported into the cells. Ketone blood level meters currently on the market only measure the blood level of the D enantiomer. Products containing racemic salts require two to three times the amount of sodium, calcium and potassium for an equal amount of D-β-hydroxybutyrate readings in the blood. A reason the potential levels of D-β-hydroxybutyrate in the blood is over double with chiral solutions is because the body has to waste energy and uses up some of the D-β-hydroxybutyrate to burn off the unnatural L-O-hydroxybutyrate.
FIG. 2 depicts exemplary results from ingestion of 33 ml racemic 1,3-butanediol. […] For example, as shown, the chiral form provided an increase in ketones of approximately 3.2 mmol/L whereas the racemic form provided approximately 0.9-1.0 mmol/L increases over pre consumption ketone levels.

[2] = cited from earlier work

CC(O)CCO (racemic) [racemic 1,3-butanediol, 1,3-butanediol]
increase in ketones over pre consumption ketone levels ([1]; ingestion of 33 ml, FIG. 3): 0.9 to 1.0 mmol/L | ketone blood concentration achieved ([1]; ingestion of 33 ml, over a 105-minute period, FIG. 2): ≤ 1 mmol/L

CC(O)CC(=O)[O-].[K+] (racemic) [racemic potassium β-hydroxybutyrate, potassium β-hydroxybutyrate]
ketones level a person would be limited to reaching ([2]; consuming at about 100% of potassium's RDA): approximately 0.5 mmol/L

CC(O)CC(=O)[O-].[Na+] (racemic) [racemic sodium β-hydroxybutyrate, sodium β-hydroxybutyrate]
ketones level a person would be limited to ([2]; consuming at about 100-200% of the RDA for sodium): approximately 0.5 mmol/L

CC(O)CCO (stereo not drawn) [(D)-1,3-butanediol]
D-β-hydroxybutyrate in the blood, (D) relative to racemic 1,3-butanediol ([1]; 33 ml of each, FIG. 3): over double | increase in ketones over pre consumption ketone levels ([1]; ingestion of 33 ml, FIG. 3): approximately 3.2 mmol/L
